Laboratory results as given in US5232684A, “Labelled resiniferatoxin, compositions thereof, and methods for using the same” (priority 1990, dated 1993).
“Also recorded” adds a separate entry of the source. Where two headings read alike, the source gives them in different places.

Tests used:
[1] = biological target: T1, capsaicin receptor (pig DRG membranes) (Sus scrofa, UniProt F1RLJ0); experiment: biochemical; assay type: binding; conditions: for inhibition of specific [^3H]RTX binding: Table 1, 200 nM or 2 μM; for inhibition of [^3H]RTX binding: 30 uM; for inhibition of / competition for [^3H]RTX binding (words): biologically effective concentrations, Table 1, 10 μM, 10 µM
T1 construct: tissue Mt; Airy Locker Co., Mt; Airy, MD; host or cells: pig dorsal root ganglia
Protocol: (§1) Membrane preparations are obtained from the DRG and Gasser ganglia of female Sprague-Dawley rats (250-300 g); animals are sacrificed by decapitation under ether anesthesia, the ganglia removed and collected into ice-cold disrupting buffer (5 mM KCl, 5.8 mM NaCl, 2 mM MgCl2, 12 mM glucose, 137 mM sucrose, 10 mM HEPES, 5 mM DTT, 2 mM EGTA, pH 7.4). After homogenization with the aid of a Polytron tissue homogenizer, samples are filtered over surgical gauze and then washed twice with the same buffer and stored at -70° C. Particulate fractions are obtained from other rat neural tissues (cerebellum, spinal cord, preoptic region, striatum, substantia nigra) and from DRG of pigs (Mt. Airy Locker Co., Mt. Airy, MD), sheep, cows (kindly provided by Dr. Solomon, USDA, Beltsville, MD), and chickens (Truslow Farms, Chesterton, MD) by a similar procedure.
Subcellular fractions are prepared by a modification of the method of Bastiaensen et al. (Bastiaensen, E., Miserez, B. and De Potter, W., Subcellular fractionation of bovine ganglion stellatum: co-storage of noradrenaline, Met-enkephalin and neuropeptide Y in large `dense-cored` vesicles, Brain Res., 442 (1988) 124-130. ) Briefly: DRG are dissected free from capsule, cut into small pieces with scissors, and then homogenized with a teflon pestle (20 strokes) in ice-cold 0.25 M sucrose/ 20 mM Tris-Cl (pH 7.4) buffer. The homogenate is filtered over surgical gauze; it is then centrifuged for 10 min at 2000 gmax, giving a pellet P1, and again at 10 000 gmax for 15 min giving a pellet P2. The P1 and P2 pellets are saved as nuclear and mitochondrial fractions for binding studies. The resulting supernatant is further centrifuged at 50 000 gmax for 60 min, and then the pellet is harvested as the plasma-membrane enriched microsomal fraction.
(§2) The binding assays are carried out in a volume of 250 ul, containing assay buffer (same as the disrupting buffer but omitting DTT and EGTA and including 0.75 mM CaCl2), 26-30 ug of membrane protein and 0.25 mg/ml bovine serum albumin. […] Tubes are kept on ice while the additions are made. The assay mixture is incubated for 10 min at 37° C.; it is then cooled on ice. 150 ul of the mixture is pipetted onto Whatman GF/C or GF/F glass fiber filters presoaked with 10 mg/ml bovine serum albumin in 20 mM Tris-Cl (pH 7.4) and filtered immediately. An aliquot of 50 ul of the mixture is removed to determine total radioactivity. The filters are washed with 100 ml of ice-cold 20 mM Tris-Cl, pH 7 4, containing 0.1 mg/ml bovine serum albumin, and the bound radioactivity is determined by scintillation counting. Non-specific binding is determined in the presence of 100-1000 nM non-radioactive RTX.
(§3) Binding data from saturation experiments using increasing concentrations of hot ligand are analyzed using the collection of computer programs described by McPherson (McPherson, G.A., Analysis of radioligand binding experiments: a collection of computer programs for the IBM PC, J.Pharmacol.Methods, 14 (1985) 213-228).
(§4) Scatchard and Hill transformations are performed by the Equilibrium Binding Data Analysis program referred to as EBDA. Data are further analyzed by the curvilinear regression program LIGAND (Munson, R.J. and Rodbard, D., LIGAND: a versatile computerized approach for characterization of ligand-binding systems, Anal.Biochem, 107 (1980) 220-239).
RTX binding is also analyzed in the presence of a fixed, low (60 pM or 300 pM) concentration of [^3 H]RTX and increasing concentrations of non-radioactive RTX or other ligand.

[2] = RTX versus capsaicin; cited from earlier work
[3] = biological target: T2, capsaicin receptor (rat DRG membranes) (Rattus norvegicus, UniProt O35433); experiment: biochemical; assay type: binding; conditions: for activity at 0.2 µM: 10 min, read-out: % of specific [^3H]RTX binding measured in the absence of the tested compound ± SEM
T2 construct: membrane preparations from dorsal root ganglia (DRG) of female Sprague-Dawley rats; from tissue; host or cells: dorsal root ganglia of female Sprague-Dawley rats
Protocol: as §1, §2, §3, §4
(§5) RTX binding is also analyzed in the presence of a fixed, low (60 pM or 300 pM) concentration of [^3 H]RTX and increasing concentrations of non-radioactive RTX or other ligand. […] The Ki value for RTX is calculated from the relationship Ki =ID50 -L; the Ki values for other ligands are calculated from the general form of the equation (Cheng, Y.C. and Prusoff, W.H., Relation between the inhibition constant (Ki) and the concentration of inhibitor which causes 50 per cent inhibition (I50) of an enzymatic reaction, Biochem. Pharmacol., 22 (1973) 3099-3108) Ki =IC50 /(1+L/Kd) where L=concentration of labelled ligand and Kd =dissociation constant of radioactive ligand as determined in the saturation experiments using variable concentrations of hot ligand. Comparison of the quality of fit using single and multiple site competition models is performed by the LIGAND program.
[^3 H]RTX binding is examined using membrane preparations from dorsal root ganglia (DRG) of female Sprague-Dawley rats.

rats = conditions: 300 ug/kg RTX s.c.; cited from earlier work
protein kinase C [4] = experiment: [^3H]phorbol 12,13-dibutyrate binding, rat DRG membranes
Description: The side chain at C20 is essential for the capsaicin-like 25 activity of RTX (Szallasi, A., Sharkey, N.A. and Blumberg, P.M., Structure-activity analysis of resiniferatoxin analogs, Phytotherapy Res., 6: 253-257, 1990).

[5] = RTX versus capsaicin, cited from earlier work
[6] = biological target: T3, capsaicin receptor (rat Gasser ganglia) (Rattus norvegicus, UniProt O35433); experiment: biochemical; assay type: binding; conditions: for activity at 30 µM: read-out: % of specific [^3H]RTX binding measured in the absence of the tested compound ± SEM
T3 construct: from tissue; host or cells: Gasser ganglia of female Sprague-Dawley rats
Protocol: as §1, §2, §3, §4, §5
Gasser ganglia represents the […] homolog of the dorsal root ganglia.

[7] = test system: mitochondrial NADH-Coenzyme Q oxidoreductase; conditions: high capsaicin concentrations; cited from earlier work
[8] = test system: capsaicin desensitization of sensory fibers; conditions: cited from earlier work
protein kinase C [9] = experiment: [^3H]PDBu binding, pig DRG membranes; conditions: read-out: Kd for [^3H]PDBu binding to membrane preparations
[10] = 10 min, pig DRG, 30 μM, read-out: % of specific [^3H]RTX binding measured in the absence of the tested compound ± SEM

T1 sequence (F1RLJ0 1-841): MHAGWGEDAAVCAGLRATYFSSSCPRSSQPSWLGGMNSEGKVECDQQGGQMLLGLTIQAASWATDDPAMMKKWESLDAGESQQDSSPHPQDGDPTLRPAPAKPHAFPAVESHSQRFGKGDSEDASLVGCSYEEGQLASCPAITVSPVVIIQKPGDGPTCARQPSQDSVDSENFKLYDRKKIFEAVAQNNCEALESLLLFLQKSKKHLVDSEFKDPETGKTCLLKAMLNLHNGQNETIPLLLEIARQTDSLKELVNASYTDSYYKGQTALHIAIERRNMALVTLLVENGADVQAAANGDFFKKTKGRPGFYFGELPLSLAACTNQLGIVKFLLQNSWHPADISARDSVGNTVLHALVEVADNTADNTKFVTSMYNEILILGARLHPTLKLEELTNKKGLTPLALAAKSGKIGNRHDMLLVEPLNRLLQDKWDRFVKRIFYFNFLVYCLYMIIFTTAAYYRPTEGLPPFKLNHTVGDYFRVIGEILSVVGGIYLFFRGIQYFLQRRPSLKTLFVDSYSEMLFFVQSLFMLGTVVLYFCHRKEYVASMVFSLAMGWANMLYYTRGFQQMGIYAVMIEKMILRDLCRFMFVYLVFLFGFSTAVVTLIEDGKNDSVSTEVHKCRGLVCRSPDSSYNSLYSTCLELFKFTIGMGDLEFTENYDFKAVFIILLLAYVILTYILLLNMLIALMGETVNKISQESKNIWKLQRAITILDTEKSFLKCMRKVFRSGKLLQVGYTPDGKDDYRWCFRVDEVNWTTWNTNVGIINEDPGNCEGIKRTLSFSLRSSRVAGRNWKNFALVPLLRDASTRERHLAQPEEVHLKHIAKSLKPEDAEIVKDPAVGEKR
T2 sequence (O35433 whole entry): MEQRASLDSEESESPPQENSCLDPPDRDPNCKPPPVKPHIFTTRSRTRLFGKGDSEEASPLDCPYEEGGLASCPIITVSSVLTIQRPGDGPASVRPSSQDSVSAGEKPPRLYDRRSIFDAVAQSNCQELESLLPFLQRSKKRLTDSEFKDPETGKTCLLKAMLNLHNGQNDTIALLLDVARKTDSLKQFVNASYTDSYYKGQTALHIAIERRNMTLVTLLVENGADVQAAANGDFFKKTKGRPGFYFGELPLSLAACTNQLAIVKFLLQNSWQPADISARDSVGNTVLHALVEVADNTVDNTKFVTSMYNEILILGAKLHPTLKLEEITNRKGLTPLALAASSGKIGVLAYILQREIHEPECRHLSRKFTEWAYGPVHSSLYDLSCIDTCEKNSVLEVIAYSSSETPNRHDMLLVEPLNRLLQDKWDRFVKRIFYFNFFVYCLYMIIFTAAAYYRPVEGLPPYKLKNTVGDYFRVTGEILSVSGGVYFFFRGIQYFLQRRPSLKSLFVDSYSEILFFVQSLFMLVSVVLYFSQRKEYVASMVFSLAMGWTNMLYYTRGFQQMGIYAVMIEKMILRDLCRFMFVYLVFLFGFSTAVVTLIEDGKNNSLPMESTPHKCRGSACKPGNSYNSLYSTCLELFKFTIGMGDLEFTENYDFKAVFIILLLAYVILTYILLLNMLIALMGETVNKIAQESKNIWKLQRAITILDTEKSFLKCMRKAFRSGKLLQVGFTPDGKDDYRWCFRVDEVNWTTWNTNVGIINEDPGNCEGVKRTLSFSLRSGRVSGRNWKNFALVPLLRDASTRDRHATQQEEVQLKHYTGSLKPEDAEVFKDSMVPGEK
T3 sequence (O35433 whole entry): as above

NCCc1ccc(O)c(O)c1 [dopamine]
competition for [^3H]RTX binding sites [1]: does not compete

N[C@@H](Cc1ccc(O)c(O)c1)C(=O)O [L-DOPA]
competition for [^3H]RTX binding sites ([1]; pig DRG, 100 uM): does not compete

C=C(C)[C@]12C[C@@H](C)[C@@]34O[C@](Cc5ccccc5)(O[C@@H]1[C@@H]3C=C(COC(=O)Cc1ccc(O)c(OC)c1)C[C@]1(O)C(=O)C(C)=C[C@@H]41)O2 [RTX, resiniferatoxin]
potency for induction of pain relative to capsaicin [2]: comparable in potency
Ki ([3]; rat DRG, 60 pM [^3H]RTX, 30 pM to 3 nM non-radioactive RTX, mean±SEM, 3 determinations, read-out: Ki, competition of [^3H]RTX binding): 0.11 ± 0.04 nM
time to expression of desensitization (rats): 1 to 4 h
inhibition of specific [^3H]phorbol 12,13-dibutyrate binding to protein kinase C (protein kinase C [4]; rat DRG preparations): only at uM concentrations
fold more potent than capsaicin / difference in potencies for induction of hypothermia or neurogenic inflammation [5]: 10^3 -10^4 fold
fold more potent than capsaicin / difference in potencies for induction of hypothermia or neurogenic inflammation ([5]; listed as resiniferatoxin): up to 10^4 fold
loss of specific [^3H]RTX binding after addition of excess non-radioactive RTX ([1]; pig DRG membranes, by 10 min at 37° C.): complete loss of specific binding
Ki ([1]; pig DRG, mean±SEM, 4 determinations, read-out: Ki, inhibition of [^3H]RTX binding): 2.4 ± 0.3 nM
Ki ([1]; pig DRG, one site model, read-out: Ki (LIGAND analysis)): 2.2 nM

NC[C@H](O)c1ccc(O)c(O)c1 [norepinephrine]
competition for [^3H]RTX binding sites ([1]; pig DRG, 100 uM): does not compete

CCCC(=O)O[C@@H]1[C@@H](C)[C@@]2(O)[C@@H](C=C(CO)C[C@]3(O)C(=O)C(C)=C[C@@H]23)[C@@H]2C(C)(C)[C@]12OC(=O)CCC [PDBu, phorbol 12,13-dibutyrate]
activity at 0.2 µM [3]: 106 ± 9%
activity at 0.2 µM ([1]; 10 min, read-out: % of specific [^3H]RTX binding measured in the absence of the tested compound ± SEM): 100 ± 2%
inhibition of specific [^3H]RTX binding [1]: inhibited neither

C=C(C)[C@]12C[C@@H](C)[C@@]34O[C@](Cc5ccccc5)(O[C@@H]1[C@@H]3C=C(CO)C[C@]1(O)C(=O)C(C)=C[C@@H]41)O2 [ROA, resiniferonol 9,13,14-orthophenylacetate]
activity at 0.2 µM ([3]; rat DRG, 200 nM): 106%
activity at 2 µM ([1]; 10 min, pig DRG, 2 μM, read-out: % of specific [^3H]RTX binding measured in the absence of the tested compound ± SEM): 105 ± 6%
inhibition of specific [^3H]RTX binding [1]: inhibited neither

COc1cc(CCC(C)=O)ccc1O [zingerone]
activity at 30 µM [1, 10]: 92 ± 7%
inhibition of [^3H]RTX binding ([1]; pig DRG): does not inhibit or does so more weakly
activity at 30 µM ([6]; rat Gasser ggl, 30 μM): 111%

CNC[C@H](O)c1ccc(O)c(O)c1 [epinephrine]
competition for [^3H]RTX binding sites [1]: does not compete

COc1cc(CNC(=O)CCCCCCC(C)C)ccc1O [dihydrocapsaicin]
inhibition of [^3H]RTX binding ([1]; pig DRG): inhibits to a similar degree as does capsaicin
% of specific [^3H]RTX binding measured in the absence of the tested compound ± SEM ([1]; pig DRG, 30 μM, 10 min): 33 ± 5%
% of specific [^3H]RTX binding measured in the absence of the tested compound ± SEM ([6]; rat Gasser ggl, 30 μM): 22%

COc1cc(CNC(=O)CCCC/C=C/C(C)C)ccc1O [capsaicin]
inhibition of NADH-Coenzyme Q oxidoreductase [7]: inhibited at high capsaicin concentrations
Ki [1]: 14000 ± 2000 nM
% of specific [^3H]RTX binding measured in the absence of the tested compound ± SEM ([1]; pig DRG, 30 μM, 10 min): 28 ± 4%
% of specific [^3H]RTX binding measured in the absence of the tested compound ± SEM ([6]; gasser ganglia membranes, 30 µM): 30 ± 11

N.N.N.N.N.N.N.N.N.N.N.N.N.N.[Cl-].[Cl-].[Cl-].[Cl-].[Cl-].[Cl-].[O-2].[O-2].[Ru+3].[Ru+3].[Ru+4] [ruthenium red]
effect on (capsaicin) desensitization [8]: block capsaicin desensitization; also recorded: blocks the desensitization
inhibition of / competition for [^3H]RTX binding (words) [1]: fails to compete
inhibition of / competition for [^3H]RTX binding (words) ([1]; listed as Ruthenium red): fails to inhibit
% of specific [^3H]RTX binding measured in the absence of the tested compound ± SEM ([1]; pig DRG (by column position), 10 μM, n = 2): 109%

[^3 H]phorbol 12,13-dibutyrate [[^3 H]PDBu]
Kd (protein kinase C [4]; rat DRG, read-out: Kd for [^3H]PDBu binding to membrane preparations): 8.5 nM
Kd (protein kinase C [9]): 11.5 nM

O=C(/C=C/C=C/c1ccc2c(c1)OCO2)N1CCCCC1 [piperine]
activity at 30 µM [1, 10]: 109 ± 2%
inhibition of [^3H]RTX binding ([1]; pig DRG): does not inhibit or does so more weakly
activity at 30 µM ([6]; rat Gasser ggl, 30 μM): 118%
